Assay results from patent US4395408A, “Steroids” (Roussel Uclaf, priority 1980, dated 1983).
Structures can show the parent of a compound that is named as a salt.

System: mice
Test: Acute Toxicity (lethal dose LD0)
Format: in vivo
Conditions: for DL0 I.P. (maximum dose which did not cause any mortality after 8 days): intraperitoneal

## C/C=C1/CC[C@H]2[C@@H]3CC[C@H]4C[C@H](N)CC[C@]4(C)[C@H]3CC[C@]12C [Example 1, (Z) 3α-amino-Δ^17(20) -5α-pregnene hydrochloride]
  DL0 I.P. (maximum dose which did not cause any mortality after 8 days): 100 mg/kg
  DL0 oral (maximum dose which did not cause any mortality after 8 days): ≥ 400 mg/kg

## C[C@H](O)[C@@]1(O)CC[C@H]2[C@@H]3CC[C@H]4C[C@H](N)CC[C@]4(C)[C@H]3CC[C@@]21C [Example 3, (20S)3α-amino-5α-pregnane-17α,20-diol hydrochloride]
  DL0 I.P. (maximum dose which did not cause any mortality after 8 days): 60 mg/kg
  DL0 oral (maximum dose which did not cause any mortality after 8 days): 200 mg/kg

## C[C@H](O)[C@H]1CC[C@H]2[C@@H]3CC[C@H]4C[C@@H](N)CC[C@@H]4[C@H]3CC[C@]12C [Example 5, (20S)3β-amino-19-nor-5α-pregnane-20-ol hydrochloride]
  DL0 I.P. (maximum dose which did not cause any mortality after 8 days): 100 mg/kg
  DL0 oral (maximum dose which did not cause any mortality after 8 days): 400 mg/kg

## CC(=O)[C@@]1(O)CC[C@H]2[C@@H]3CC[C@H]4C[C@H](N)CC[C@]4(C)[C@H]3CC[C@@]21C [Example 6, 3α-amino-5α-pregnane-17α-ol-20-one hydrochloride]
  DL0 I.P. (maximum dose which did not cause any mortality after 8 days): 60 mg/kg
  DL0 oral (maximum dose which did not cause any mortality after 8 days): ≥ 400 mg/kg
